Assay results published in PubChem BioAssay AID330 (DTP/NCI, 2004).
Where “and” joins values, the source holds several entries; their conditions need not be identical. Equal values may be shown once. Toxic doses and inconclusive results are not listed. Rule for the calls: active = survival T/C of 150% or more; inactive = T/C below 125% in these data.

Tested on: P388 leukemia ip, CD2F1 mice, survival T/C
Test: NCI In Vivo Anticancer Drug Screen. Data for tumor model P388 Leukemia (intraperitoneal) in CD2F1 (CDF1) mice
Conditions: endpoint: median survival time, higher = longer survival
In short: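 Mice carrying the transplanted tumor received test compound or vehicle. Survival was recorded in each group, and the value is the treated-group measurement divided by that of the vehicle-treated control group.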

[1] = dose: 50.0 mg/kg/injection, schedule: Q01DX009 (ip), vehicle: saline
[2] = dose: 100.0 mg/kg/injection, schedule: Q01DX009 (ip), vehicle: saline
[3] = dose: 200.0 mg/kg/injection, schedule: Q01DX009 (ip), vehicle: saline
[4] = dose: 60.0 mg/kg/injection, schedule: Q01DX005 (ip), vehicle: saline with Tween-80
[5] = dose: 120.0 mg/kg/injection, schedule: Q01DX005 (ip), vehicle: saline with Tween-80
[6] = dose: 240.0 mg/kg/injection, schedule: Q01DX005 (ip), vehicle: saline with Tween-80
[7] = dose: 100.0 mg/kg/injection, schedule: Q01DX001 (ip), vehicle: Klucel (hydroxypropylcellulose) (HPC)
[8] = dose: 200.0 mg/kg/injection, schedule: Q01DX001 (ip), vehicle: Klucel (hydroxypropylcellulose) (HPC)
[9] = dose: 100.0 mg/kg/injection, schedule: Q01DX005 (ip), vehicle: saline with Tween-80
[10] = dose: 200.0 mg/kg/injection, schedule: Q01DX005 (ip), vehicle: saline with Tween-80
[11] = dose: 12.5 mg/kg/injection, schedule: Q01DX005 (ip), vehicle: Klucel (hydroxypropylcellulose) (HPC)
[12] = dose: 25.0 mg/kg/injection, schedule: Q01DX005 (ip), vehicle: Klucel (hydroxypropylcellulose) (HPC)
[13] = dose: 50.0 mg/kg/injection, schedule: Q01DX005 (ip), vehicle: Klucel (hydroxypropylcellulose) (HPC)
[14] = dose: 100.0 mg/kg/injection, schedule: Q01DX005 (ip), vehicle: Klucel (hydroxypropylcellulose) (HPC)
[15] = dose: 50.0 mg/kg/injection, schedule: Q04DX003 (ip), vehicle: saline with Tween-80
[16] = dose: 200.0 mg/kg/injection, schedule: Q04DX003 (ip), vehicle: saline with Tween-80
[17] = dose: 50.0 mg/kg/injection, schedule: Q01DX005 (ip), vehicle: saline with Tween-80
[18] = dose: 25.0 mg/kg/injection, schedule: Q01DX009 (ip), vehicle: saline

Measured: T/C

O=C(CNOCc1ccccc1)OCc1ccccc1
inactive: dose: 12.5 mg/kg/injection, schedule: Q01DX009 (ip), vehicle: other 88 % of control | dose: 25.0 mg/kg/injection, schedule: Q01DX009 (ip), vehicle: other 96 % of control | dose: 50.0 mg/kg/injection, schedule: Q01DX009 (ip), vehicle: other 99 % of control | dose: 100.0 mg/kg/injection, schedule: Q01DX009 (ip), vehicle: other 97 % of control | dose: 200.0 mg/kg/injection, schedule: Q01DX009 (ip), vehicle: other 108 % of control

C=C(C)c1ccc([Si](C)(C)C)cc1
inactive: [1] 104 % of control | [2] 101 % of control | [3] 109 % of control

CC(C)(C)c1cc(-n2nc3ccccc3[n+]2[O-])c(O)c(C(C)(C)C)c1
inactive: [4] 100 % of control | [5] 94 % of control | [6] 91 % of control

CCSc1nsc(NC(C)=O)n1
inactive: [7] 104 % of control | [8] 96 % of control | dose: 400.0 mg/kg/injection, schedule: Q01DX001 (ip), vehicle: Klucel (hydroxypropylcellulose) (HPC) 102 % of control

O=[N+]([O-])c1ccccc1N=Nc1c(-c2ccccc2)nn(C(=S)N2CCOCC2)c1-c1ccccc1
inactive: dose: 1.5 mg/kg/injection, schedule: Q01DX005 (ip), vehicle: saline with Tween-80 102 % of control | dose: 3.0 mg/kg/injection, schedule: Q01DX005 (ip), vehicle: saline with Tween-80 96 % of control | dose: 6.0 mg/kg/injection, schedule: Q01DX005 (ip), vehicle: saline with Tween-80 87 % of control | dose: 6.25 mg/kg/injection, schedule: Q01DX005 (ip), vehicle: saline with Tween-80 92 % of control | [9] 86 % of control | [10] 95 % of control

Nc1cccc2c1C(=O)c1cccc3snc-2c13
inactive: [11] 102 % of control | [12] 104 % of control | [13] 100 % of control and 97 % of control | [14] 87 % of control

N#CC(Nc1ccccc1)c1ccc(Cl)cc1 (stereo not given)
inactive: [4] 94 % of control | [5] 94 % of control | [6] 104 % of control

COc1ccc(NC2=NCCS2)cc1
inactive: [15] 100 % of control | dose: 100.0 mg/kg/injection, schedule: Q04DX003 (ip), vehicle: saline with Tween-80 100 % of control | [16] 100 % of control

CCCCCCCCCCCC(=O)OC1CCC2(C)C(=CCC3C2CCC2(C)C(C(C)/C=C/C(CC)C(C)C)CCC32)C1 (stereo not given)
inactive: dose: 100.0 mg/kg/injection, schedule: Q04DX003 (ip), vehicle: other 102 % of control | dose: 200.0 mg/kg/injection, schedule: Q04DX003 (ip), vehicle: other 102 % of control

COC(=O)/C=C1\C2OC(C1C(=O)OC)C(O)C2O (stereo not given)
inactive: [17] 100 % of control | [9] 97 % of control | [10] 90 % of control

Cn1c(-c2nc3ccccc3n2C)nc2ccccc21
inactive: [17] 102 % of control | [9] 98 % of control | [10] 102 % of control

CC(=O)OC1C(O)C(C)OC(OC2C(OC(=O)C3CCC4C(C3)OC3(CC(OC(=O)/C=C/c5ccccc5)C(C)CO3)C43CO3)OC(C)C(O)C2OC(C)=O)C1O (stereo not given)
inactive: dose: 0.25 mg/kg/injection, schedule: Q01DX009 (ip), vehicle: saline 91 % of control | dose: 0.5 mg/kg/injection, schedule: Q01DX009 (ip), vehicle: saline 100 % of control | dose: 1.0 mg/kg/injection, schedule: Q01DX009 (ip), vehicle: saline + alcohol 113 % of control | dose: 1.0 mg/kg/injection, schedule: Q01DX009 (ip), vehicle: saline 110 % of control | dose: 2.0 mg/kg/injection, schedule: Q01DX009 (ip), vehicle: saline + alcohol 119 % of control | dose: 2.0 mg/kg/injection, schedule: Q01DX009 (ip), vehicle: saline 117 % of control | dose: 4.0 mg/kg/injection, schedule: Q01DX009 (ip), vehicle: saline + alcohol 124 % of control

O=C1Cc2ccccc2C(=O)N1CCN1CCOCC1
inactive: dose: 100.0 mg/kg/injection, schedule: Q01DX001 (ip), vehicle: saline 101 % of control | dose: 200.0 mg/kg/injection, schedule: Q01DX001 (ip), vehicle: saline 108 % of control

C/C1=C\CC/C(C)=C/CC/C(C)=C/CC(C)(C)/C=C/C1
inactive: dose: 25.0 mg/kg/injection, schedule: Q01DX009 (ip), vehicle: saline + Tween-80 + alcohol 112 % of control | dose: 50.0 mg/kg/injection, schedule: Q01DX009 (ip), vehicle: saline + Tween-80 + alcohol 112 % of control | dose: 100.0 mg/kg/injection, schedule: Q01DX009 (ip), vehicle: saline + Tween-80 + alcohol 111 % of control

CC(C)NCC(O)COc1ccc(O)c(O)c1 (stereo not given)
inactive: [18] 100 % of control | [2] 123 % of control

CN(CCc1ccccn1)c1ccc2c(c1)C(=O)c1ccccc1-2
inactive: [17] 100 % of control | [9] 93 % of control

Cc1cccc(NC(=O)C(=O)CC(=O)c2ccc([N+](=O)[O-])cc2)c1C
inactive: [17] 105 % of control | [9] 108 % of control | [10] 106 % of control

COc1ccc(CC(=O)C(=O)O)cc1OCc1ccccc1
inactive: [15] 96 % of control | [16] 101 % of control | dose: 400.0 mg/kg/injection, schedule: Q04DX003 (ip), vehicle: saline with Tween-80 99 % of control

N#CCCN(C(=S)Nc1ccc(F)cc1)N1CCCCCC1
inactive: dose: 100.0 mg/kg/injection, schedule: Q04DX003 (ip), vehicle: saline 100 % of control | dose: 200.0 mg/kg/injection, schedule: Q04DX003 (ip), vehicle: saline 107 % of control | dose: 400.0 mg/kg/injection, schedule: Q04DX003 (ip), vehicle: saline 98 % of control

O=C(Nc1ccc(Cl)cc1)Nc1nnc(-c2ccc(-c3nnc(NC(=O)Nc4ccc(Cl)cc4)o3)cc2)o1
inactive: [4] 104 % of control | [5] 100 % of control | [6] 98 % of control

N#CC1=C(Nc2ccccc2)CCC1
inactive: [11] 95 % of control | [12] 101 % of control | [13] 99 % of control and 101 % of control | [14] 110 % of control

CCCCCCCCCCCC(=O)N(CCO)CCc1ccccc1
inactive: [18] 101 % of control and 91 % of control | [1] 101 % of control and 109 % of control and 95 % of control | [2] 100 % of control and 103 % of control | [3] 103 % of control and 110 % of control

C=C(C)/C=C/S(=O)c1ccccc1 (stereo not given)
inactive: [13] 100 % of control | [14] 97 % of control | dose: 200.0 mg/kg/injection, schedule: Q01DX005 (ip), vehicle: Klucel (hydroxypropylcellulose) (HPC) 98 % of control

C/C(=N\NC(=S)N1CCC(c2ccccc2)CC1)c1nccnc1C
inactive: [17] 100 % of control | [9] 102 % of control | [10] 100 % of control

Cc1ccc(CC2CC(=O)NC2=O)cc1 (stereo not given)
inactive: [4] 105 % of control | [5] 93 % of control | [6] 96 % of control

CN(/N=C\c1ccccc1)C(=N)N(C)/N=C/c1ccccc1
inactive: [7] 91 % of control | [8] 96 % of control

CCCCCCC(C)N=[N+]([O-])CC(C)OC(C)=O (stereo not given)
inactive: dose: 10.0 mg/kg/injection, schedule: Q01DX009 (ip), vehicle: saline with Tween-80 121 % of control | dose: 20.0 mg/kg/injection, schedule: Q01DX009 (ip), vehicle: saline with Tween-80 105 % of control | dose: 40.0 mg/kg/injection, schedule: Q01DX009 (ip), vehicle: saline with Tween-80 121 % of control

O=S(=O)(OI(O)c1ccccc1)c1ccc(Cl)cc1
inactive: dose: 12.5 mg/kg/injection, schedule: Q01DX009 (ip), vehicle: water 101 % of control | dose: 25.0 mg/kg/injection, schedule: Q01DX009 (ip), vehicle: water 105 % of control | dose: 50.0 mg/kg/injection, schedule: Q01DX009 (ip), vehicle: water 109 % of control and 114 % of control

Cn1nc([N+](=O)[O-])nc1-c1ccccc1
inactive: dose: 50.0 mg/kg/injection, schedule: Q01DX009 (ip), vehicle: saline with Tween-80 106 % of control | dose: 100.0 mg/kg/injection, schedule: Q01DX009 (ip), vehicle: saline with Tween-80 98 % of control | dose: 200.0 mg/kg/injection, schedule: Q01DX009 (ip), vehicle: saline with Tween-80 107 % of control | dose: 400.0 mg/kg/injection, schedule: Q01DX009 (ip), vehicle: saline with Tween-80 107 % of control

CCOC(=O)c1[nH]cnc1N
inactive: dose: 15.0 mg/kg/injection, schedule: Q01DX005 (ip), vehicle: saline with Tween-80 104 % of control | dose: 30.0 mg/kg/injection, schedule: Q01DX005 (ip), vehicle: saline with Tween-80 101 % of control | [4] 104 % of control and 106 % of control | [5] 100 % of control | [6] 104 % of control
